We go through three compounds from ChEMBL document CHEMBL1201862, “PubChem BioAssay data set” (2004).

Structures are written as SMILES. The source made the active and inactive calls. A value given as a limit tells only on which side of the number the result lay.

Assay [1] concerns the target Tyrosine-protein phosphatase non-receptor type 5 (Homo sapiens, UniProt P54829). As to the kind of experiment: PTPN5 enzyme inhibition – biochemical, fluorescence intensity, uHTS hits, confirmation (AID 602372). The following applies: read-out: IC50_Mean. The assay is classed as functional.
In assay [2] the target is T1, Trace amine-associated receptor 1 (Homo sapiens, UniProt Q96RJ0).
T1 sequence (Q96RJ0 whole entry): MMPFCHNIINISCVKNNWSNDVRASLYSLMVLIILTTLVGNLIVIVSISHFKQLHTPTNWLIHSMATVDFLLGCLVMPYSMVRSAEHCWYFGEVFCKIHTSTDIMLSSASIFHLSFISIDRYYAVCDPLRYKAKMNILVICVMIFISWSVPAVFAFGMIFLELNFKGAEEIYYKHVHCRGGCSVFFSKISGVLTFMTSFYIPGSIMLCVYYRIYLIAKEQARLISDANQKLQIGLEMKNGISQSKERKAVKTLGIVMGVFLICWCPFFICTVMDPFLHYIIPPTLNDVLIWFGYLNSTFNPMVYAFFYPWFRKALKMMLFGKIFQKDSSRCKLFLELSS
As to the kind of experiment: Fluorescence-based cell-based high throughput dose response assay to identify agonists of the human trace amine associated receptor 1 (TAAR1). The assay is classed as functional.

Assay [3] concerns the target T2, Tyrosine-protein phosphatase non-receptor type 7 (Homo sapiens, UniProt P35236).
T2 sequence (P35236 whole entry): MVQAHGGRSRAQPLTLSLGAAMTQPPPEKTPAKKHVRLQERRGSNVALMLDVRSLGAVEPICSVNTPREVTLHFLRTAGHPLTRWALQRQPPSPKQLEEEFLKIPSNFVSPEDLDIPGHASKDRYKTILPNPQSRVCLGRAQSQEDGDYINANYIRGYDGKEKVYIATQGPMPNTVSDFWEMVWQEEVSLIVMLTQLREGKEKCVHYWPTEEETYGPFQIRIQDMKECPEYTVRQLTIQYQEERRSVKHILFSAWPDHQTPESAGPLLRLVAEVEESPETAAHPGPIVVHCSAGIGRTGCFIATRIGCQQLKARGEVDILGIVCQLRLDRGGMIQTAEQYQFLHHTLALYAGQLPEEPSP
As to the kind of experiment: SAR analysis of chemical inhibitors of HePTP using a Fluorescent assay - Set 2. [Related pubchem assays (depositor defined):AID1059, AID1077, AID1661, AID2085, AID521]. Format: functional.

The target of assay [4] is T3, Dual specificity protein phosphatase 3 (Homo sapiens, UniProt P51452). As to the kind of experiment: SAR VHR1 Fluorescent Assay for In Vitro dose response studies Set 2. [Related pubchem assays (depositor defined):AID1654, AID1661, AID1878]. The assay is classed as functional.
T3 sequence (P51452 whole entry): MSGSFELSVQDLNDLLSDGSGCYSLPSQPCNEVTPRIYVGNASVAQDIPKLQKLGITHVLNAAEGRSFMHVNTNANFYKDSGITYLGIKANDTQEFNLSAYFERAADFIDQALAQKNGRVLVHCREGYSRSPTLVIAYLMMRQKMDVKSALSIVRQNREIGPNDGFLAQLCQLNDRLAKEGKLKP
Assay [5] is described as follows: cells. Format: functional, cell-based.
Assay [6] concerns the target T4, Dual specificity protein phosphatase 6 (Rattus norvegicus, UniProt Q64346).
T4 sequence (Q64346 whole entry): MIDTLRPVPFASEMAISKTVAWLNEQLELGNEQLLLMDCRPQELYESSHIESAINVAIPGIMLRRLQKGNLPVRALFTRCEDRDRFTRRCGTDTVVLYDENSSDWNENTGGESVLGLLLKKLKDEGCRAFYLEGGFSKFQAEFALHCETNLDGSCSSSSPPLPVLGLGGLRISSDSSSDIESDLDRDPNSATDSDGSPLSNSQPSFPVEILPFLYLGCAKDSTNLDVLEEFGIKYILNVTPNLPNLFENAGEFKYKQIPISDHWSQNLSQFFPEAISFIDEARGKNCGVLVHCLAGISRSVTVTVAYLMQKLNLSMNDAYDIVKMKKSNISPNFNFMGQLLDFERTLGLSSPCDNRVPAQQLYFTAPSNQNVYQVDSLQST
As to the kind of experiment: SAR analysis of inhibitors of MKP-3 - Set 2. [Related pubchem assays (depositor defined):AID1055, AID1661, AID425, AID553, AID566]. Format: functional.

Assay [7] deals with T3, Dual specificity protein phosphatase 3. Briefly: VHR1 phosphatase inhibitors, biochemical (AID 1878).
For assay [8] the target is unchanged. As to the kind of experiment: SAR VHR1 Fluorescent Assay for In Vitro dose response studies. [Related pubchem assays (depositor defined):AID1654, AID1661, AID1878, AID1992, AID2004, AID2070, AID2085]. Format: functional.
Assay [9] addresses T2, Tyrosine-protein phosphatase non-receptor type 7. As to the kind of experiment: redox-active compounds inhibiting HePTP phosphatase – biochemical, fluorescence, mechanism study (AID 2068). Format: functional.
Assay [10] is described as follows: cells. Format: functional, cell-based. The source holds these as a separate data set.
The target in assay [11] is T4, Dual specificity protein phosphatase 6. As to the kind of experiment: inhibition of rat DUSP6 enzyme activity – biochemical, in vitro, primary screen (AID 425).
The target in assay [12] is T3, Dual specificity protein phosphatase 3. Briefly: VHR1 phosphatase inhibitors, primary screen, biochemical, absorbance, uHTS (AID 1654).
For assay [13] the target is unchanged. As to the kind of experiment: VHR phosphatase inhibition, dose response, selectivity assay for STEP inhibitor project, biochemical (AID 602374). The assay is classed as functional. The settings on record: read-out: IC50_Mean.
Assay [14] concerns the target T4, Dual specificity protein phosphatase 6. Format: functional.
Assay [15] has as its target T3, Dual specificity protein phosphatase 3. As to the kind of experiment: SAR VHR1 absorbance Assay for In Vitro dose response studies. [Related pubchem assays (depositor defined):AID1654, AID1661, AID1878, AID1992, AID2004].
Assay [16] addresses Tyrosine-protein phosphatase non-receptor type 11 (Homo sapiens, UniProt Q06124). As to the kind of experiment: PTPN11 enzyme inhibitors – biochemical, selectivity assay for STEP inhibitor project, dose response (AID 602367). The assay is classed as functional. The following applies: read-out: IC50_Mean.
Assay [17] has as its target T1, Trace amine-associated receptor 1. As to the kind of experiment: Counterscreen for agonists of the human trace amine associated receptor 1 (hTAAR1): Fluorescence-based cell-based high throughput dose response assay to identify hTAAR1 agonist that also desensitize TAAR1 receptor response. The assay is classed as functional. (In general: The purpose of a counterscreen is to sort out artefacts and off-target activity.)

Assay [18] concerns the target T5, Intestinal-type alkaline phosphatase (Homo sapiens, UniProt P09923). Briefly: inhibition of human intestinal alkaline phosphatase – biochemical, luminescent, uHTS hits, set 2, dose response (AID 488793). The assay is classed as functional.
Assay [19] addresses T5, Intestinal-type alkaline phosphatase. As to the kind of experiment: Dose Response confirmation of uHTS hits from a small molecule inhibitors of human intestinal alkaline phosphatase via a luminescent assay. [Related pubchem assays (depositor defined):AID2544, AID2574]. Format: functional.
Assay [20] has as its target Intestinal-type alkaline phosphatase (Mus musculus, UniProt P24822). As to the kind of experiment: PubChem AID 488874. Format: functional.
Assay [21] can be described thus: cells.
Assay [22] concerns the target T6, Alkaline phosphatase, tissue-nonspecific isozyme (Homo sapiens, UniProt P05186).
T6 sequence (P05186 whole entry): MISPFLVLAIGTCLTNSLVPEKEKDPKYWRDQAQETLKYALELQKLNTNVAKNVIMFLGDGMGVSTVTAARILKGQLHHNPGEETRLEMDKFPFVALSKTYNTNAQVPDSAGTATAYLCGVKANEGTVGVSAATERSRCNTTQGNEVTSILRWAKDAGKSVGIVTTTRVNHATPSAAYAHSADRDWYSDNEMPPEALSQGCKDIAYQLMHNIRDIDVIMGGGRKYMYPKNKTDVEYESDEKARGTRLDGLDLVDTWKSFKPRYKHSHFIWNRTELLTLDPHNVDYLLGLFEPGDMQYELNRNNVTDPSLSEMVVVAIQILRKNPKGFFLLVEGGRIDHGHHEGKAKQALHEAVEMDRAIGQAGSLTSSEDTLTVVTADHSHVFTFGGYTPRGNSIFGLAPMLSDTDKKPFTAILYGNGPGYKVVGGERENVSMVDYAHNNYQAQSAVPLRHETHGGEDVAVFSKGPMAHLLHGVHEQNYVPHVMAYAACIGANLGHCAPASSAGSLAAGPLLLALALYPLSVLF
As to the kind of experiment: inhibition of tissue-nonspecific alkaline phosphatase – biochemical, dose response (AID 488882). The assay is classed as functional.

The target in assay [23] is T7, Oxysterols receptor LXR-beta (Homo sapiens, UniProt P55055).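 Further: Cell-based luminescence dose-response assay of agonist activity at LXR, run as a confirmatory counterscreen to a daf-12 agonist screen; HEK293 cells with Gal4-LXR fusion and GAL4-driven luciferase reporter; agonist potency from rising luciferase signal of a Gal4-LXR reporter.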
T7 sequence (P55055 whole entry): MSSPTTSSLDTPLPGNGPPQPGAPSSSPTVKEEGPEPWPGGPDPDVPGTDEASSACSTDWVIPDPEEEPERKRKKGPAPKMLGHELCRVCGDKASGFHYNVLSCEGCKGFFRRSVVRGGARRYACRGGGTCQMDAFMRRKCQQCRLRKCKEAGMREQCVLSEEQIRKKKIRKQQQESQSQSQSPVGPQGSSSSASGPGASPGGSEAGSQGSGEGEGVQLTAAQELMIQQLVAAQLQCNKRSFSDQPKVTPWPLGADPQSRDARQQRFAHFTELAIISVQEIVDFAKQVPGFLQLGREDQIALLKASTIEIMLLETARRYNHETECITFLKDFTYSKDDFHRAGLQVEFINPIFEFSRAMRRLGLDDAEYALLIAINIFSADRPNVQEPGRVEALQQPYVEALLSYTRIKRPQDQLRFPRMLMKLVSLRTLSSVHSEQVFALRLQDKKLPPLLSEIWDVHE
Format: functional, cell-based.

A further assay has as its target Nonstructural protein 1 (Influenza A virus, UniProt Q194T2). Format: functional, Influenza A virus (A/California/07/2009(H1N1)).
Assay [24] has as its target T8, Voltage-dependent T-type calcium channel subunit alpha-1H (Homo sapiens, UniProt O95180). Briefly: human CACNA1H calcium influx blockade – cell-based, synthetic library set 2, HEK293 HH8, Fluo-4, SAR follow-up (AID 493023). Format: functional.
Assay [25] deals with T8, Voltage-dependent T-type calcium channel subunit alpha-1H. Briefly: inhibition of CACNA1H calcium flux – cell-based, SynthLib3 library, HEK293 Cav3.2, fluorescence (AID 493041). The assay is classed as functional. Background: A change in cytosolic calcium serves as a functional read-out for many receptors and channels.

T8 sequence (O95180 whole entry): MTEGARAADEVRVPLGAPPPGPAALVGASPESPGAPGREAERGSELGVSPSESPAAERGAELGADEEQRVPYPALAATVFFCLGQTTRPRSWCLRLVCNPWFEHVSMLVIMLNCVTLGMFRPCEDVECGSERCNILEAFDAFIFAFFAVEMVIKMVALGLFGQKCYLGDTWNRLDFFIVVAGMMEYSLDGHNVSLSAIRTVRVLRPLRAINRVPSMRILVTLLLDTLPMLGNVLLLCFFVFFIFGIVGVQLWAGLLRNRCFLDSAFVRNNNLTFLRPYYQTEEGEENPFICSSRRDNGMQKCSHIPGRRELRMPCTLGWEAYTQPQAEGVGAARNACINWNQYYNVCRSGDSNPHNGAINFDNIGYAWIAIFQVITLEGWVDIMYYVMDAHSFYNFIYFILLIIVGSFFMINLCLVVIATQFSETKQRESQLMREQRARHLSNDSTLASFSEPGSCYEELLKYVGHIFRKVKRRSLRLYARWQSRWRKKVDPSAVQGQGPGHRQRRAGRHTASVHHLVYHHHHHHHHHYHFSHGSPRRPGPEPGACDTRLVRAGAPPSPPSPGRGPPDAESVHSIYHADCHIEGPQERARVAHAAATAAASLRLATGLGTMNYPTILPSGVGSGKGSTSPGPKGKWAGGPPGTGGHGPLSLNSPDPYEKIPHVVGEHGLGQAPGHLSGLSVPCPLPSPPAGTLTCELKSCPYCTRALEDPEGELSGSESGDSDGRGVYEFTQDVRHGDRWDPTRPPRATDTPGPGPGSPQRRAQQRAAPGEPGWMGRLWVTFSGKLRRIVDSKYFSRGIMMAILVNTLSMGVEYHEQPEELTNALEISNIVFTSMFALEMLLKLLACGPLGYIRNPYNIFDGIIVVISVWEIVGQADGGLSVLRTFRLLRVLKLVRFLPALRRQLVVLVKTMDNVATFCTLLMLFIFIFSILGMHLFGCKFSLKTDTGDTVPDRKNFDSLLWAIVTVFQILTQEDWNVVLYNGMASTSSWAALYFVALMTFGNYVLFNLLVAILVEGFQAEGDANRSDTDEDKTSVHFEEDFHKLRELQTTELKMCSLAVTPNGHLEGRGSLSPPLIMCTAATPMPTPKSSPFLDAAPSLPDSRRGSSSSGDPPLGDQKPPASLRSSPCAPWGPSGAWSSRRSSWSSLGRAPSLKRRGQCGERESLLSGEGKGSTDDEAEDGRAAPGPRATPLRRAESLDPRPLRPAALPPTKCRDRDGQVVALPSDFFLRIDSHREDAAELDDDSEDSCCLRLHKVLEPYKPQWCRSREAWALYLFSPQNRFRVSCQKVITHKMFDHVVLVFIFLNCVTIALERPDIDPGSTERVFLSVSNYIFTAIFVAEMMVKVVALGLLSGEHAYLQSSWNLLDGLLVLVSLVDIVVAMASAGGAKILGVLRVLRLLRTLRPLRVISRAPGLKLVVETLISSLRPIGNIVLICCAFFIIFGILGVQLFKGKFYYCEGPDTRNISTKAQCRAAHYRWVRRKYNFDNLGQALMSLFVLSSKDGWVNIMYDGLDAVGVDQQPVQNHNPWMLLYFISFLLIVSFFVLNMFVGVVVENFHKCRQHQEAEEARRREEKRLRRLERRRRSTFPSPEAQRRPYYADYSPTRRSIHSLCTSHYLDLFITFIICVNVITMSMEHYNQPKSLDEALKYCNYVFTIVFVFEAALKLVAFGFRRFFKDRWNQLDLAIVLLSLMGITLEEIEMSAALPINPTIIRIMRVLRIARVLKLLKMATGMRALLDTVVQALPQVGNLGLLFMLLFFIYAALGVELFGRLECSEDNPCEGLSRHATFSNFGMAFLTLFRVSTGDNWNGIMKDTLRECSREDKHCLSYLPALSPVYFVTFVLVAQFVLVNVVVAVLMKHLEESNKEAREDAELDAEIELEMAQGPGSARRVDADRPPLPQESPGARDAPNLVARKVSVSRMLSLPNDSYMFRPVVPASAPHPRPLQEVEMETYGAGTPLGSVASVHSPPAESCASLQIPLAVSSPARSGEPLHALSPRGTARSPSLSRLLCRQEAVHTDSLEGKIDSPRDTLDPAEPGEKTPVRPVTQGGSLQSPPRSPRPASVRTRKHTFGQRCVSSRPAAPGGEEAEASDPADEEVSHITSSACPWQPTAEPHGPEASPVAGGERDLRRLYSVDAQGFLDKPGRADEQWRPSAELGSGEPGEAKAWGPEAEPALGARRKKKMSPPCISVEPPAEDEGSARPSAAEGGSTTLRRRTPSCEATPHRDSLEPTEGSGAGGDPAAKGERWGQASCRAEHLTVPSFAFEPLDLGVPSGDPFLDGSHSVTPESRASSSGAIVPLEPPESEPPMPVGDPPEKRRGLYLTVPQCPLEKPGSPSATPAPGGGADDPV
T5 sequence (P09923 whole entry): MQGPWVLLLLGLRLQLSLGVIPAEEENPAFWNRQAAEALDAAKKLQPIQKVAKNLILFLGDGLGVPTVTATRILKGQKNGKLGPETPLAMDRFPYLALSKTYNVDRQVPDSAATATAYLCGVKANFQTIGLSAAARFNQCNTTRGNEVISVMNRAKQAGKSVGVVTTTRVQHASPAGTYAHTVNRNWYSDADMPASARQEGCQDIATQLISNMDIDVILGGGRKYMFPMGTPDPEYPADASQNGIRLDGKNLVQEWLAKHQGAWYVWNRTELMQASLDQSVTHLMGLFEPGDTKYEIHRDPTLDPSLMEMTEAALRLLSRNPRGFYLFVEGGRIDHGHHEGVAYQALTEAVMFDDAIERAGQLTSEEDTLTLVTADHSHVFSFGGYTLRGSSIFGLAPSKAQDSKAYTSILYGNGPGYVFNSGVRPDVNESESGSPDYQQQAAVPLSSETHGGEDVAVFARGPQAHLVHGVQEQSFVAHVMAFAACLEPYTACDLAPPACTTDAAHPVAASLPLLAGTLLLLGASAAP
Intestinal-type alkaline phosphatase (Mus musculus, UniProt P24822), sequence (P24822 whole entry): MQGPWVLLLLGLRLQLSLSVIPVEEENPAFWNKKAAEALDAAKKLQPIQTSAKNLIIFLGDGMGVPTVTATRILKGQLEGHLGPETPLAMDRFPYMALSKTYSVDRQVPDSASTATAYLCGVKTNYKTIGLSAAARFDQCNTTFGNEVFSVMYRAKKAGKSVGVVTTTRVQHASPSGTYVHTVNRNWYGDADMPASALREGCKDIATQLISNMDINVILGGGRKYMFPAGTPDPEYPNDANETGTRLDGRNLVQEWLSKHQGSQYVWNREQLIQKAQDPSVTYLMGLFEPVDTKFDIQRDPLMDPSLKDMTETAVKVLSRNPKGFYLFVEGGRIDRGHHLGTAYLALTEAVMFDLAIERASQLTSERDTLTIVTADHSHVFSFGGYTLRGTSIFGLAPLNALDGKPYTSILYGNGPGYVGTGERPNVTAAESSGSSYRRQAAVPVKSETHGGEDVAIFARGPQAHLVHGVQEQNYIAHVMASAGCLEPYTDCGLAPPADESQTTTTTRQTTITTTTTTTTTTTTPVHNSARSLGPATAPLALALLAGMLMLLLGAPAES
Nonstructural protein 1, sequence (Q194T2 whole entry): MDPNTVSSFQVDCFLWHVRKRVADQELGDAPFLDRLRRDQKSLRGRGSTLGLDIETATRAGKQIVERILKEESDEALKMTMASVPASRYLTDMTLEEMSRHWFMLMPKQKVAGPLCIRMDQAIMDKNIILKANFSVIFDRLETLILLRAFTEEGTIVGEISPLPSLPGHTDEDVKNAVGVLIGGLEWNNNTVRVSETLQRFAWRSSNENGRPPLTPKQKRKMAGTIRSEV
Tyrosine-protein phosphatase non-receptor type 5, sequence (P54829 whole entry): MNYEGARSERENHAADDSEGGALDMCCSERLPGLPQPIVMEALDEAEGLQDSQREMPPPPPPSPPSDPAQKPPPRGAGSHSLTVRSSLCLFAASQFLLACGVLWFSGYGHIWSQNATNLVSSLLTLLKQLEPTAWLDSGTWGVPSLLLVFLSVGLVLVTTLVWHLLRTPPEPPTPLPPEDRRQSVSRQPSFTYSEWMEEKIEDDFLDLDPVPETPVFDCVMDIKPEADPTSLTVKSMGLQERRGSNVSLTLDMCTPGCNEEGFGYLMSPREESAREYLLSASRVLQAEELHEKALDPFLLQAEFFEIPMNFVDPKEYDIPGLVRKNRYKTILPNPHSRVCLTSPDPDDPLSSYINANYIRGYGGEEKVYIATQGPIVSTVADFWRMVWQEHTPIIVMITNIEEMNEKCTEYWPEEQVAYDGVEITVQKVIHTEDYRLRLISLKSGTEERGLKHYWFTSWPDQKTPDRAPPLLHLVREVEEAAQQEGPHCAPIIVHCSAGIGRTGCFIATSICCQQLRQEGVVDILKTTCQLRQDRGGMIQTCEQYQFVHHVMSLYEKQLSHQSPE
Tyrosine-protein phosphatase non-receptor type 11, sequence (Q06124 whole entry): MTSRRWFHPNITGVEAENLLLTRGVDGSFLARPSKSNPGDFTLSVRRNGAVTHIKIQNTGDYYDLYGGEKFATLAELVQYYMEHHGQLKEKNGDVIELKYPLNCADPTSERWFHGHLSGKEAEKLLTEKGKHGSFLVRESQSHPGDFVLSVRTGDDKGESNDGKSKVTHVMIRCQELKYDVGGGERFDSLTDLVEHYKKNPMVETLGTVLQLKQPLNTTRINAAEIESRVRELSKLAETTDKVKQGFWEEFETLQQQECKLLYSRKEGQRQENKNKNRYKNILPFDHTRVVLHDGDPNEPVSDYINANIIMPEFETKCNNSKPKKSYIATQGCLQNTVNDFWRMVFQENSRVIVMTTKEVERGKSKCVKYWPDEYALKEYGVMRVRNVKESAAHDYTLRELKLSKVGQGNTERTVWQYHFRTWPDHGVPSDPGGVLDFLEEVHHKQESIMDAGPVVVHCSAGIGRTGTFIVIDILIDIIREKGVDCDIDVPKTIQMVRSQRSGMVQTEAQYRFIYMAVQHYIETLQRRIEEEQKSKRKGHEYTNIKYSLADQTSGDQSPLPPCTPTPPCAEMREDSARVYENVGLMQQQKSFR

As for `S=C(NCCc1ccccc1)Nc1c(Cl)cccc1Cl`, the IC50 in assay [1] was 14.5 µM (active); in [3], 447 nM (active); in assay [4], 347 nM (active); in “cells [5]”, > 29.9 µM (inactive); in assay [6], > 100 µM (inactive); in assay [7] it was 4.31 µM (active). Moreover, the IC50 in assay [8] was > 99 µM (inactive); in assay [9], 34.5 nM (active); in [11] it was > 158 µM (not active); in [12], 2.44 µM (active); in assay [13], 1.12 µM (active); in assay [14] it was > 99 µM (inactive). The IC50 is 342 nM (active) in assay [15], 5.76 µM (active) in [16] and 4.11 µM (active) in assay [17]. The EC50 (usually the concentration at which the effect is half-maximal) is 565 nM (active) in assay [2] and > 29.9 µM (inactive) in “cells [10]”.
As for `CN(C)c1ccc(N=Nc2ccccc2Br)cc1`, the IC50 in assay [18] is 30.9 µM (active); in [19], 28.1 µM (inactive); in assay [20], 36 µM (active); in [22], 38.2 µM (active); on Nonstructural protein 1, 17.2 µM (active). Moreover, the EC50 (in “cells [21]”; in assay [23]) was > 67.5 µM (inactive) in each case.
On to `CC(C)(C)CCN1CC2CCC(NC(=O)c3cc(Cl)cc(Cl)c3)C2C1` (stereo unspecified), for which the concentration for a half-maximal effect (EC50) was 660 nM (active) in assay [24] and 80 nM (active) in assay [25].
